According to patent US5550161A, “Substituted orally effective ION chelators related to deferoxamine” (Oral-D, priority 1993, dated 1996):
Read-outs that look alike come from different tables or passages of the source.

Experiments:
[1] = Iron excretion (urine and stool) by hypertransfused iron-overloaded rats; format: in vivo, Sprague-Dawley rats; details: for circulation time relative to DFO: intraperitoneal, inferred from increased urinary iron excretion; for Iron excreted, GROSS Stool / Iron excreted, GROSS Urine / Iron excreted, GROSS Stool, per μmole / Iron excreted, GROSS Urine, per μmole / Iron excreted, NET Stool, per μmole / Iron excreted, NET TOTAL, per μmole / Iron excreted, NET Urine, per μmole / Iron excreted, NET Stool / Iron excreted, NET Urine: 100 mg/kg; for Iron excreted, GROSS Stool, per μmole / Iron excreted, GROSS Urine, per μmole / Iron excreted, NET Stool, per μmole / Iron excreted, NET TOTAL, per μmole / Iron excreted, NET Urine, per μmole: normalized to molar dose; for absorption and cleavage after oral administration: inferred from net iron excretion; for Iron excreted, NET Stool / Iron excreted, NET Urine: gross minus background
Experimental: In this model, heat-damaged rat erythrocytes are transfused intraperitoneally (i.p.) on a daily basis.
Deferoxamine mesylate (DFO:Desferal) was obtained from the Ciba Pharmaceutical Company (Summit, N.J.) as a lyophilized powder. For administration to the hypertransfused rats, it was dissolved in physiological saline at a concentration of 10 mg/ml.
A homogeneous solution of acylated derivative was obtained by dissolving the drugs in propylene glycol at a concentration of 30 mg/ml.
Sprague-Dawley rats (60-80 g; Taconic Farms, Germantown, N.Y. (were iron overloaded via daily (5 days/week) intraperitoneal injections of heat-damaged rat erythrocytes. The red blood cells for infusion were purchased from Hilltop Lab Animals, Inc. (Scottsdale, Pa.). They were obtained from retired breeders, the donor animals being exsanguinated via cardiac puncture under CO2 anesthesia. The blood drawn into acid-citrate-dextrose containing gentamicin sulfate (25 g/ml) and shipped on wet ice by overnight express to the testing laboratory. Upon arrival the blood was stored at 4° C. for up to 7 days. Prior to infusion the red cells were slightly damaged by heating at 50° C. for 15 minutes.
The animals were placed on a low iron diet (>10 μg of Fe/g) for one week prior to screening. […] During screening the animals were placed in individual metabolic cages and urine and stool were collected daily. The daily transfusion of heat-damaged red cells was continued throughout drug testing and during intervals of rest between drug evaluations. The compounds were administered either by gavage (orally) or by intraperitoneal injection 4 to 8 hours after the animals were transfused. The dose of each drug was 100 mg/kg/day for 5 days. Urine and stool samples were collected approximately 24 hours after drug administration. They were placed in crucibles, dried at 110° C. and then ashed at 550° C. overnight. Following dissolution of the ash in 3N HCl, the iron content of the samples was determined by atomic absorption spectroscopy.
The iron-overloaded rats were divided into groups of six. Before testing any of the new compounds both positive and negative controls were evaluated. Baseline excretion of iron in the urine and stool of this series of hypertransfused rats was determined in the absence of drug administration (negative control). As a positive control, another group of six animals was given DFO intraperitoneally at a dose of 100 mg/kg (153 micromoles/kg). […] All of the drugs were evaluated both orally and intraperitoneally. The intraperitoneal effect was used to assess bioavailability.
In the prodrugs, where the hydroxamic acid moieties (iron binding sites) of DFO were blocked, effectiveness upon parenteral administration would indicate that the rat is able to metabolize the prodrug to the active species. Failure to be effective orally could then be attributed to lack of absorption. […] In order to obtain an estimate of the relative iron-chelating potency within the series, the amount of iron excreted in response to the acylated derivatives was normalized to correspond to the molar equivalent of 100 mg/kg DFO.

[2] = cited from earlier work
[3] = Intraperitoneal LD50 in Swiss-Webster mice; details: for LD50: mouse, in vivo, ip
[4] = Solubility in water and ordinary organic solvents; format: physicochemical; details: in words
[5] = ip, 100 mg/kg, DFO (historic), n=54

SMILES	circulation time relative to DFO [1]	Iron excreted, GROSS Stool ([1]; ip, acylated derivatives) [µg/kg/day]	Iron excreted, GROSS Urine ([1]; ip, acylated derivatives) [µg/kg/day]	Iron excreted, GROSS Stool, per μmole ([1]; ip) [µg/kg/day/µmol]	Iron excreted, GROSS Urine, per μmole ([1]; ip) [µg/kg/day/µmol]	Iron excreted, NET Stool, per μmole ([1]; ip) [µg/kg/day/µmol]	Iron excreted, NET TOTAL, per μmole ([1]; ip) [µg/kg/day/µmol]	Iron excreted, NET Urine, per μmole ([1]; ip) [µg/kg/day/µmol]	absorption and cleavage after oral administration ([1]; oral)	Iron excreted, GROSS Stool ([1]; po) [µg/kg/day]	Iron excreted, GROSS Urine ([1]; po) [µg/kg/day]	Iron excreted, GROSS Stool, per μmole ([1]; po) [µg/kg/day/µmol]	Iron excreted, GROSS Urine, per μmole ([1]; po) [µg/kg/day/µmol]	Iron excreted, NET Stool, per μmole ([1]; po) [µg/kg/day/µmol]	Iron excreted, NET TOTAL, per μmole ([1]; po) [µg/kg/day/µmol]	Iron excreted, NET Urine, per μmole ([1]; po) [µg/kg/day/µmol]	also measured
CCC(=O)NCCCCCN(OC(=O)CC)C(=O)CCC(=O)NCCCCCN(OC(=O)CC)C(=O)CCC(=O)NCCCCCN(OC(=O)CC)C(C)=O [PDP3, N-Propionyl-O,O,O-tripropionyl deferoxamine]	circulate for a longer period of time than DFO	933	179	7.29	1.40	5.11	6.00	0.89	efficiently absorbed and subsequently cleaved	496	99	3.88	0.77	1.70	1.96	0.26	
CCCC(=O)NCCCCCN(OC(=O)CCC)C(=O)CCC(=O)NCCCCCN(OC(=O)CCC)C(=O)CCC(=O)NCCCCCN(OC(=O)CCC)C(C)=O [BDB3, N-Butyroyl-O,O,O-tributyryl deferoxamine]	circulate for a longer period of time than DFO	875	174	7.35	1.46	5.17	6.12	0.95	efficiently absorbed and subsequently cleaved	507	91	4.26	0.76	2.08	2.33	0.25	
CCCCCCCCCCCCCC(=O)NCCCCCN(OC(=O)CC)C(=O)CCC(=O)NCCCCCN(OC(=O)CC)C(=O)CCC(=O)NCCCCCN(OC(=O)CC)C(C)=O [MDP3, N-Myristoyl-O,O,O-tripropionyl deferoxamine]		434	134	4.06	1.25	1.88	2.62	0.74		551	88	5.15	0.82	2.97	3.28	0.31	increase of potency (absorption) on lengthening N-terminal amide from 3 to 14 carbons ([1]; oral, MDP3 vs PDP3): two-thirds
CC(=O)N(O)CCCCCNC(=O)CCC(=O)N(O)CCCCCNC(=O)CCC(=O)N(O)CCCCCN [DFO, N'-[5-[[4-[[-5-(acetylhydroxamino)pentyl]amino]-1,4-dioxobutyl]hydroxyamino]pentyl]-N-(5-aminopentyl)-N-hydroxybutanediamide, reference compound]				5.60	1.18	3.42	4.09	0.67		398	98	2.60	0.64	0.03	0.06	0.03	Iron excreted, GROSS Stool [2, 5]: 857 µg/kg/day; Iron excreted, GROSS Urine [2, 5]: 180 µg/kg/day; effectiveness of oral relative to parenteral administration ([2]; oral vs parenteral, historical data): less than 10%; Iron excreted, NET Stool ([1]; ip, DFO (historic)): 465 µg/kg/day; Iron excreted, NET Urine ([1]; ip, DFO (historic)): 87 µg/kg/day; Iron excreted, NET Stool ([1]; po): 6 µg/kg/day; Iron excreted, NET Urine ([1]; po): 5 µg/kg/day; LD50 [3]: 800 mg/kg
CCCCCCCC(=O)ON(CCCCCNC(=O)CCC(=O)N(CCCCCNC(=O)CCC(=O)N(CCCCCN(C(C)=O)C(=O)CCCCCCC)OC(=O)CCCCCCC)OC(=O)CCCCCCC)C(C)=O [N-acetyl-N-octanoyl-O,O,O-trioctanoyldeferoxamine]																	increase of absorption on adding an N-acyl group ([1]; oral, vs N-acetyl-O,O,O-trioctanoyldeferoxamine, earlier unpublished data): about 50%
CCCCCCCC(=O)NCCCCCN(O)C(=O)CCC(=O)NCCCCCN(O)C(=O)CCC(=O)NCCCCCN(O)C(C)=O [N-octanoyl-O,O,O-trihydrogendeferoxamine]																	solubility in water and ordinary organic solvents [4]: sparingly soluble
CCCCC(=O)NCCCCCN(OC(=O)CCCC)C(=O)CCC(=O)NCCCCCN(OC(=O)CCCC)C(=O)CCC(=O)NCCCCCN(OC(=O)CCCC)C(C)=O [VDV3, N-Valeroyl-O,O,O-trivaleroyl deferoxamine]	circulate for a longer period of time than DFO	966	184	8.63	1.64	6.45	7.58	1.13	efficiently absorbed and subsequently cleaved	599	133	5.35	1.19	3.17	3.85	0.68	relative activity among derivatives tested ([1]; in words): most active derivative tested; iron excretion relative to oral DFO ([1]; oral, vs DFO given orally): more than 60 times; systemic toxicity ([3]; in words): lack of systemic toxicity; LD50 [3]: 800 mg/kg
